{"source": "patent US20230225321A1", "about": "“ARTHROPOD REPELLENTS OBTAINED BY CHEMICALLY CONVERTING LACTIC ACID, LACTATES OR OTHER LACTIC ACID DERIVATIVES” (UNIVERSIDADE FEDERAL DO PARANA, priority 2020, published 2023)", "key": {"[1]": {"test_system": "female A. aegypti mosquitoes", "assay": "Repellency test, treated hand in cage of mosquitoes, time to first bite", "type": "in vivo", "details": "for Repellency: repellency time until first bite, solutions of 15 to 20% in ethanol applied to hand, cage with 20 female A. aegypti", "protocol": "Repellency tests can be carried out in the laboratory, at a temperature of 20° C.±2° C. and a relative humidity of 50 to 60%. Temperature and relative humidity data should be monitored and recorded using a digital thermohygrometer during the experiments.\nTo perform the tests, there were used wooden cages with screens on the sides and glass on the upper face measuring 30 cm×30 cm×30 cm containing 20 female A. aegypti mosquitoes, all mated with no previous blood meal. The tests must be carried out during the daytime, respecting the preference for the mosquito's hematophagy activity.\nFor the tests, one of the hands of the analyzer must be sanitized with neutral soap and then the upper, lower, lateral face and the region between the fingers must be treated with repellent solutions in ethanol, in order for the compounds to have their repellency activities evaluated. […]\nWhen the first bite occurs, the experiment is interrupted, and the time is recorded by a digital stopwatch."}, "[2]": {"test_system": "mosquitoes", "details": "cited from earlier work"}}, "data": [{"smiles": "CCCC(=O)O[C@@H](C)C(=O)N(CC)CC", "note": "[Input 3]", "values": [{"measurement": "Repellency", "setting": "[1]", "result": 2, "unit": "h"}]}, {"smiles": "CCN(CC)C(=O)[C@H](C)OC(C)=O", "note": "[Input 4]", "values": [{"measurement": "Repellency", "setting": "[1]", "result": 5, "unit": "h"}]}, {"smiles": "CCC(C)OC(=O)N1CCCCC1CCO", "note": "(centres unmarked) [Icaridin]", "values": [{"measurement": "protection (duration)", "setting": "[2]; concentration of 20%", "result": "up to 10 hours"}, {"measurement": "minimum concentration for repellent action", "setting": "[2]; in vivo", "result": 5, "unit": "%"}]}, {"smiles": "CCCC(=O)O[C@@H](C)C(=O)N1CCCCC1", "note": "[Input 5]", "values": [{"measurement": "Repellency", "setting": "[1]", "result": ">10", "unit": "h"}]}, {"smiles": "CCCC(=O)OC(C)C(=O)N1CCCC1", "note": "(centres unmarked) [Input 2]", "values": [{"measurement": "Repellency", "setting": "[1]", "result": ">10", "unit": "h"}]}, {"smiles": "CCCC(=O)O[C@@H](C)C(=O)N1CCCC1", "note": "[Input 8]", "values": [{"measurement": "Repellency", "setting": "[1]", "result": ">12", "unit": "h"}, {"measurement": "result in terms of repellency time (comparison within Table 1)", "setting": "[1]; solutions of 15 to 20% in ethanol", "result": "best result in terms of repellency time"}]}, {"smiles": "C[C@H](O)C(=O)N1CCCC1", "note": "[Input 7]", "values": [{"measurement": "Repellency", "setting": "[1]", "result": 0, "unit": "h"}]}, {"smiles": "CCN(CC)C(=O)c1cccc(C)c1", "note": "[DEET, N,N-diethyl-3-methylbenzamide]", "values": [{"measurement": "long-lasting effect (duration)", "setting": "[2]; concentration of 20% to 30% of the compound", "result": "more than 6 hours"}]}, {"smiles": "CCCCN(CCC(=O)OCC)C(C)=O", "note": "[IR 3535, ethyl butylacetylaminopropionate]", "values": [{"measurement": "effectiveness", "setting": "[2]; used in a concentration above 10%", "result": "slightly lower compared to DEET"}]}]}
